Measurements taken from article PMC6185959 (2018).
Blank lines part the entries; values can stand above or below the compound they belong to.

What was measured:
[1] = test system: Pu22 (MYC G4) (DNA, G4) TGAGGGTGGGGAGGGTGGGGAA; test: WaterLOGSY NMR; conditions: 50 mM KCl, Tris-d11 pH 6.4, 20 °C, 5 µM oligo, 100 µM compound
[2] = test system: 5'-biotin Pu27 (MYC G4) (DNA, G4) TGGGGAGGGTGGGGAGGGTGGGGAAGG; test: SPR; conditions: 30 mM KCl; 10 mM Tris pH 6.4, 3% DMSO, 0.01% Tween-20; 1:1 Langmuir, highest affinity site
[3] = test system: Pu22 (MYC G4) (DNA, G4) TGAGGGTGGGGAGGGTGGGGAA; test: CD melting; conditions: 30 mM KCl; 10 mM Tris pH 6.3, 1% DMSO; 10 µM oligo, 40 µM compound; Table S2 prints 7.6 ± 0.5
[4] = test system: Pu27 (MYC G4) (DNA, G4) TGGGGAGGGTGGGGAGGGTGGGGAAGG; test: CD melting; conditions: 30 mM KCl; 10 mM Tris pH 6.3, 1% DMSO; 10 µM oligo, 40 µM compound
[5] = test system: 131 (DNA, G4) TGAGGGTGGGTAAGGGTGGGTAA; test: CD melting; conditions: 30 mM KCl; 10 mM Tris pH 6.3, 1% DMSO; 10 µM oligo, 40 µM compound
[6] = test system: 122 (DNA, G4) TGAGGGTGGGTAGGGTAGGGTAA; test: CD melting; conditions: 30 mM KCl; 10 mM Tris pH 6.3, 1% DMSO; 10 µM oligo, 40 µM compound
[7] = test system: 221 (DNA, G4) TGAGGGTAGGGTAGGGTGGGTAA; test: CD melting; conditions: 30 mM KCl; 10 mM Tris pH 6.3, 1% DMSO; 10 µM oligo, 40 µM compound
[8] = test system: 333 (DNA, G4) TGAGGGTTAGGGTAAGGGTTAGGGTAA; test: CD melting; conditions: 30 mM KCl; 10 mM Tris pH 6.3, 1% DMSO; 10 µM oligo, 40 µM compound
[9] = test system: GAT Tail (A25T) (DNA, G4) TGAGGGTGGGGAGGGTGGGGAT; test: CD melting; conditions: 30 mM KCl; 10 mM Tris pH 6.3, 1% DMSO; 10 µM oligo, 40 µM compound
[10] = test system: no tail (DNA, G4) GGGTGGGGAGGGTGGG; test: CD melting; conditions: 30 mM KCl; 10 mM Tris pH 6.3, 1% DMSO; 10 µM oligo, 40 µM compound
[11] = test system: BCl2 (DNA, G4) AGGGGCGGGCGCGGGAGGAAGGGGGCGGGA; test: CD melting; conditions: 30 mM KCl; 10 mM Tris pH 6.3, 1% DMSO; 10 µM oligo, 40 µM compound
[12] = test system: HIF1a (DNA, G4) GGGAGGGAGAGGGGGCGGG; test: CD melting; conditions: 30 mM KCl; 10 mM Tris pH 6.3, 1% DMSO; 10 µM oligo, 40 µM compound
[13] = test system: MYB (DNA, G4) GGAGGAGGAGGTCACGGAGGAGGAGGAGAAGGAGGAGGAGGA; test: CD melting; conditions: 30 mM KCl; 10 mM Tris pH 6.3, 1% DMSO; 10 µM oligo, 40 µM compound
[14] = test system: dsDNA (DNA, duplex) CAATCGGATCGAATTCGATCCGATTG; test: CD melting; conditions: 30 mM KCl; 10 mM Tris pH 6.3, 1% DMSO; 10 µM oligo, 40 µM compound
[15] = test system: MYC Pu22 G14T/G23T (NMR, 121) (DNA, G4) TGAGGGTGGGTAGGGTGGGTAA; test: solution NMR structure; conditions: 50 mM KCl; 25 mM Tris-d11 pH 6.4, 25 °C; twofold excess compound; 5' and 3' tetrads
[16] = test system: MYC Pu22 G14T/G23T (NMR, 121) (DNA, G4) TGAGGGTGGGTAGGGTGGGTAA; test: 1H NMR titration, imino shifts; conditions: 50 mM KCl; 25 mM Tris-d11 pH 6.4, 10% DMSO-d6, 25 °C; overall KD, non-cooperative fit
[17] = test system: Alexa Fluor 647-Pu27 (MYC G4) (DNA, G4) TGGGGAGGGTGGGGAGGGTGGGGAAGG; test: fluorescence intensity titration; conditions: 50 mM KCl, 25 mM Tris pH 6.4, 2-3% DMSO, RT, 50 nM oligo, 2:1 model
[18] = test system: Alexafluor647-KRAS (DNA, G4) AGGGCGGTGTGGGAAGAGGGAAGAGGGGGAGGCAG; test: fluorescence intensity titration; conditions: 50 mM KCl; 25 mM Tris pH 6.4, 2-3% DMSO, RT; 50 nM oligo; 2:1 model
[19] = test system: Alexafluor647-BCL2 (DNA, G4) AGGGGCGGGCGCGGGAGGAAGGGGGCGGGA; test: fluorescence intensity titration; conditions: 50 mM KCl; 25 mM Tris pH 6.4, 2-3% DMSO, RT; 50 nM oligo; 2:1 model
[20] = test system: Alexafluor647-Telomeric DNA (DNA, G4) TTAGGGTTAGGGTTAGGGTTAGGGTTA; test: fluorescence intensity titration; conditions: 50 mM KCl; 25 mM Tris pH 6.4, 2-3% DMSO, RT; 50 nM oligo; 2:1 model
[21] = test system: Alexafluor647-VEGF (DNA, G4) CGGGGCGGGCCGGGGGCGGGGT; test: fluorescence intensity titration; conditions: 50 mM KCl; 25 mM Tris pH 6.4, 2-3% DMSO, RT; 50 nM oligo; 2:1 model
[22] = test system: Alexafluor647-NRAS (RNA, G4) UGUGGGAGGGGCGGGUCUGGG; test: fluorescence intensity titration; conditions: 50 mM KCl; 25 mM Tris pH 6.4, 2-3% DMSO, RT; 50 nM oligo; 2:1 model

binding ([1]; internal non-binding control): no
Structure (SMILES): CN[C@H](C(=O)O)C(C)C

KD [2]: 1.4 ± 1.2 µM
ΔTm [3]: 7.4 ± 0.5 °C
ΔTm [4]: 7.5 ± 2.0 °C
ΔTm [5]: 4.6 ± 0.3 °C
ΔTm [6]: 7.0 ± 0.3 °C
ΔTm [7]: 4.0 ± 1.0 °C
ΔTm [8]: 0.0 ± 1.0 °C
ΔTm [9]: 4.5 ± 0.8 °C
ΔTm [10]: 4.3 ± 1.7 °C
ΔTm [11]: 4.2 ± 0.4 °C
ΔTm [12]: 0.2 ± 1.1 °C
ΔTm [13]: 1.5 ± 0.3 °C
ΔTm [14]: 0.6 ± 0.7 °C
binding [1]: yes
binding [15]: yes
KD [16]: 0.0165 ± 0.0011 mM
KD ([17]; Table S1 prints 9.1 ± 1.1): 0.0094 ± 0.0011 mM
KD [18]: 0.0442 ± 0.0038 mM
KD [19]: 0.0173 ± 0.0044 mM
KD [20]: 0.0403 ± 0.01 mM
KD [21]: 0.0183 ± 0.0034 mM
binding [22]: weak
Structure (SMILES): Cc1oc2ccc(O)c(CN3CCCCCC3)c2c1C(=O)Nc1ccc(C(F)(F)F)cc1

KD [17]: 0.0232 ± 0.0076 mM
Structure (SMILES): Cc1ccc(NC(=O)c2c(C)oc3ccc(O)c(CN4CCCCCC4)c23)cc1
